From paper PMC11091220, “Metabolism-driven in vitro/in vivo disconnect of an oral ERɑ VHL-PROTAC” (Communications Biology, 2024)
Several values for one entry are separate records, joined by “and”; a condition that tells them apart may be missing. Equal values may be shown once. Read-outs that look alike come from different tables or passages of the source.

Assays:
[1] = biological target: T1, recombinant human ERα ligand binding domain (LBD) (Homo sapiens, UniProt P03372); assay: ERα binding assay (LanthaScreen TR-FRET competition); settings: mean ± s.d.; read-out: ERα binding IC50
T1 construct: purchased Invitrogen PV4543
T1 sequence (P03372 311-547 limits assumed): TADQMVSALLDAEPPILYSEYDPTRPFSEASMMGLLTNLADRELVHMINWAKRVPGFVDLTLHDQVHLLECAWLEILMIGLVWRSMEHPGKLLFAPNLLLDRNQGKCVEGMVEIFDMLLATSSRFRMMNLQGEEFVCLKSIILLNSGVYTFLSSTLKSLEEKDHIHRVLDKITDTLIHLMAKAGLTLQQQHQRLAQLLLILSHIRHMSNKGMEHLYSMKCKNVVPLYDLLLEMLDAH
Experimental: The ability of compounds to bind to isolated ERα Ligand binding domain (ERα–LBD (GST)) was assessed in competition assays using a LanthaScreenTM Time-Resolved Fluorescence Resonance Energy Transfer (TR-FRET) detection end-point. For the LanthaScreen TR-FRET endpoint, a suitable fluorophore (Fluormone ES2, Product code P2645) and recombinant human ERα ligand binding domain (LBD) (product code PV4543) were purchased from Invitrogen and used to measure compound binding. A terbium-labelled anti-GST antibody (Product code PV3551) is used to indirectly label the receptor by binding to its GST tag, and competitive binding is detected by a test compounds’ ability to displace the fluorescent ligand resulting in a loss of TR-FRET signal between the Tb-anti-GST antibody and the tracer. The assay was performed with all reagent additions carried out using the Beckman Coulter BioRAPTR FRD microfluidic workstation: […]

ERα = biological target: T2, ERα (Homo sapiens, UniProt P03372); assay: ERα high throughput imaging degradation assay in MCF7 cells; type: cell-based; settings: for Dmax: MCF7; for DC50: MCF7 cells, 20 to 24 hours; for ERa degradation (% vs fulv): Figure 6e, individual replicates
T2 construct: endogenous in cells; host or cells: MCF7 (also MCF7 engineered to express Cas9)
T2 sequence (P03372 1-595): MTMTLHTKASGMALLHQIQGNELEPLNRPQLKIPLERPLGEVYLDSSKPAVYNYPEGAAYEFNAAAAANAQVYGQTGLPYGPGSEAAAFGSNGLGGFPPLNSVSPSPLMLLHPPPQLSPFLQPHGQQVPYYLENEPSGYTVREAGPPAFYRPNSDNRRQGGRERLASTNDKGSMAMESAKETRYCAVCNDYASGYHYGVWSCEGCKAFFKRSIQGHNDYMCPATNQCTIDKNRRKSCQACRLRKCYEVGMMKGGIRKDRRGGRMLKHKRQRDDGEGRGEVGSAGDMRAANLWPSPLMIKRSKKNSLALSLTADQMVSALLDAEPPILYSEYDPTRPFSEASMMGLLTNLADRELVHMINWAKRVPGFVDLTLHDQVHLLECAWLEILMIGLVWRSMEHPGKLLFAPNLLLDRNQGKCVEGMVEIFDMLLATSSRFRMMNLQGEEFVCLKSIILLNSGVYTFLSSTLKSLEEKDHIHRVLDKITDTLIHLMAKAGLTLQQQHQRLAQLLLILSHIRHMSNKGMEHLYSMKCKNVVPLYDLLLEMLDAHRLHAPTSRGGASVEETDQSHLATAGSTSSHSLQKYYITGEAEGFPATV
Experimental: Cells were fixed, permeabilised and stained with anti-ERα (rabbit clone SP1, Thermo) and anti-PR (mouse clone PgR 636, Dako) antibodies followed by secondary AlexaFluor 594 goat anti-rabbit and AlexaFluor 488 goat anti-mouse IgG antibodies. Imaging was using the Thermo Cellinsight scanner and average fluorescence intensity was analysed using Genedata.

Chromatographic LogD = type: physicochemical; settings: Waters Acquity BEH C18 column, pH 7.4
Experimental: An HPLC with UV detection using diode array detection over a wavelength range of 210-320 nm and confirmation by electrospray mass spectrometry (pos/neg ionisation) is used to determine the chromatographic LogD of compounds. Test compounds, calibrants, and QC samples are prepared as 10 mM stocks in DMSO and further diluted to a final concentration of 0.6 mM in DMSO. […] The chromatographic system is calibrated using standards with known literature values of octanol-water partition coefficient at pH 7.4 (logD7.4) and retention factors, k’, of calibrants, QCs, and samples calculated using equation: k’=(rt-t0)/t0.

PR expression = assay: ER agonism: PR expression in Ishikawa cells by western blot; type: cell-based; settings: for PR expression (% vs 10 nM E2): 100 nM compound, individual replicates; for PR expression in the Ishikawa endometrial cell line: 100 nM, 48 h
Experimental: Fig. 8 Evidence of ER agonism of AZ’6421 and compound 8 in vitro and in vivo. a 100 nM compound or 10 nM estradiol (E2) were incubated with Ishikawa cells for 48 h and lysates measured for PR expression by western blot. b Normalised rat uterine weight shown as % change from respective vehicle control after 4 days dosing. c Representative H&E stained images taken from sections of uterine horn after 4 days of dosing. d Total plasma exposure of AZ’6421 and its metabolite 8 following dosing of 100 mg/kg BID or 30 mg/kg BID AZ’6421. Plasma samples were taken 4 hr after the 4th dose, at the same time as the uterus was weighed and sectioned for H&E staining.
Cells were seeded into 12-well tissue culture-treated plates at 0.5 x 10^6 cells/well in phenol red-free RPMI containing 5% (v/v) charcoal-stripped FBS (F6765, Sigma) and left to adhere overnight. In experiments to detect agonism or for SILAC experiments, FBS was double stripped using activated charcoal. Cells were treated with compound or 0.1% DMSO vehicle control for the times indicated prior to being lysed in Pierce RIPA buffer (Thermo Scientific), supplemented with protease and phosphatase inhibitors. Expression levels of proteins were determined by standard western blotting techniques (BioRad 4%-12% Bis-Tris gels). Antibodies were diluted in 5% milk-PBS-Tween and protein levels were detected using Pierce WestDura chemiluminescent reagents followed by visualisation and quantification on a Syngene ChemiGenius Imager. Where blots were quantified, protein levels were normalised to beta-actin or vinculin control and expressed as % of vehicle control.

[2] = reverse-phase HPLC, read-out: chrom LogD
[3] = reversed-phase HPLC, Table 2 source data, read-out: ChromLogD

SMILES: Cc1ncsc1-c1ccc(CNC(=O)[C@@H]2C[C@@H](O)CN2C(=O)[C@@H](NC(=O)COCCCOCCCOc2cc(F)c([C@@H]3c4[nH]c5ccccc5c4C[C@@H](C)N3CC(C)(C)F)c(F)c2)C(C)(C)C)cc1 [Compound 5]
- IC50 [1]: < 0.6 nM
- Degradation vs fulvestrant (ERα; Log M -7.0, listed as AZ'6421): 101.3% and 100.0% and 100.9% and 100.7% and 96.8% and 100.1% and 99.4% and 99.7%
- Dmax (ERα; MCF7, read-out: ERα imaging Dmax, 0% vehicle control, 100% fulvestrant): 100 ± 1%
- DC50 (ERα): 0.4 ± 0.1 nM
- ERa degradation (% vs fulv) (ERα; log[compound] (M) -6.52, listed as AZ'6421): 99.33% and 99.93% and 101.36% and 100.78% and 99.17% and 100.53% and 100.63% and 100.07% and 100.14% and 100.02%
- ERa degradation (% vs fulv) (ERα; log[compound] (M) -7.00, listed as AZ'6421): 101.32% and 100.02% and 100.91% and 100.71% and 100.90% and 96.75% and 100.07% and 99.39% and 100.12% and 99.67%
- ERa degradation (% vs fulv) (ERα; log[compound] (M) -7.51, listed as AZ'6421): 100.79% and 99.35% and 100.85% and 99.32% and 100.51% and 92.08% and 99.13% and 99.41% and 100.03% and 98.51%
- ERa degradation (% vs fulv) (ERα; log[compound] (M) -9.00, listed as AZ'6421): 93.78% and 65.44% and 89.78% and 70.27% and 72.25% and 75.33% and 76.06% and 75.57% and 73.41% and 66.07%
- ERa degradation (% vs fulv) (ERα; log[compound] (M) -9.51, listed as AZ'6421): 66.11% and 33.08% and 64.57% and 26.47% and 39.19% and 41.32% and 37.58% and 27.55% and 33.68% and 36.35%
- ERa degradation (% vs fulv) (ERα; log[compound] (M) -9.90, listed as AZ'6421): 38.07% and 5.08% and 43.62% and 16.97% and 24.51% and 17.96% and 13.58% and 13.52% and 2.56% and 2.84%
- ERa degradation (% vs fulv) (ERα; log[compound] (M) -10.51, listed as AZ'6421): 17.15% and -10.39% and 19.63% and 15.57% and 7.27% and 25.30% and 2.21% and -11.02% and -6.17% and -0.64%
- ERa degradation (% vs fulv) (ERα; log[compound] (M) -10.90, listed as AZ'6421): 22.79% and -6.31% and 31.83% and 8.09% and 2.16% and 2.02% and 3.46% and -2.88% and 3.42% and 4.13%
- ERa degradation (% vs fulv) (ERα; log[compound] (M) -11.51, listed as AZ'6421): 16.49% and -4.42% and 21.83% and -8.62% and -7.44% and -0.35% and 7.90% and 8.64% and 8.25% and -5.38%
- ERa degradation (% vs fulv) (ERα; log[compound] (M) -12.51, listed as AZ'6421): 22.96% and -5.76% and 24.26% and -2.82% and -3.01% and -3.46% and -11.46% and 15.61% and -2.65% and -10.83%
- chromatographic logD (Chromatographic LogD; [2]): 6.6 ± 0.4
- chromatographic logD (Chromatographic LogD; [3]): 6.6
- PR expression (% vs 10 nM E2) (PR expression; listed as AZ'6421): 0.39% and 0.32%
- PR expression in the Ishikawa endometrial cell line (PR expression): failed to induce PR expression

SMILES: C[C@@H]1Cc2c([nH]c3ccccc23)[C@@H](c2c(F)cc(OCCC(=O)O)cc2F)N1CC(C)(C)F [Compound 8]
- IC50 [1]: < 0.5 nM
- Dmax (ERα; 0% vehicle control, 100% fulvestrant, read-out: ERα imaging Dmax): 86 ± 4%
- DC50 (ERα): 0.5 ± 0.1 nM
- ERa degradation (% vs fulv) (ERα; log[compound] (M) -6.52): 86.16% and 85.41% and 90.14% and 89.92% and 86.68% and 83.66% and 85.58% and 80.53%
- ERa degradation (% vs fulv) (ERα; log[compound] (M) -7.00): 65.22% and 84.95% and 90.84% and 90.97% and 84.15% and 85.62% and 84.72% and 83.12%
- ERa degradation (% vs fulv) (ERα; log[compound] (M) -7.51): 87.11% and 87.02% and 90.35% and 91.70% and 85.51% and 86.15% and 84.84% and 84.81%
- ERa degradation (% vs fulv) (ERα; log[compound] (M) -7.90): 81.45% and 85.48% and 90.59% and 86.35% and 80.42% and 79.30% and 79.15% and 77.88%
- ERa degradation (% vs fulv) (ERα; log[compound] (M) -8.52): 80.28% and 76.86% and 80.57% and 81.16% and 72.31% and 67.13% and 75.58% and 76.43%
- ERa degradation (% vs fulv) (ERα; log[compound] (M) -9.00): 64.37% and 61.04% and 63.02% and 63.61% and 52.14% and 45.07% and 64.32% and 69.99%
- ERa degradation (% vs fulv) (ERα; log[compound] (M) -9.51): 21.08% and 35.46% and 24.68% and 25.02% and 22.82% and 21.75% and 38.96% and 36.82%
- ERa degradation (% vs fulv) (ERα; log[compound] (M) -9.90): 20.56% and 6.22% and 6.66% and 18.09% and -5.08% and 24.12% and -6.47% and -3.82%
- ERa degradation (% vs fulv) (ERα; log[compound] (M) -10.51): -1.75% and -2.12% and 13.25% and 9.62% and 10.07% and 23.66% and -5.98% and -1.61%
- ERa degradation (% vs fulv) (ERα; log[compound] (M) -10.90): -0.94% and -3.29% and -5.11% and -4.81% and 28.56% and 0.42% and 1.50% and -12.94%
- ERa degradation (% vs fulv) (ERα; log[compound] (M) -11.51): 5.64% and 1.40% and -9.86% and -6.66% and -0.74% and -8.00% and -7.44% and -13.98%
- ERa degradation (% vs fulv) (ERα; log[compound] (M) -12.51): -13.89% and 2.41% and -4.59% and -2.38% and -17.18% and -3.64% and -7.40% and -8.33%
- chromatographic logD (Chromatographic LogD; [2]): 3.8
- chromatographic logD (Chromatographic LogD; [3]): 3.8
- PR expression (% vs 10 nM E2) (PR expression): 4.18% and 6.31%
- PR expression in the Ishikawa endometrial cell line (PR expression): induced PR expression to a similar extent as AZD9496
